{"source": "patent US12691107B2", "about": "“Methods for the treatment and prevention of lung infections caused by gram-positive bacteria, fungus, or virus by administration of tafenoquine” (priority 2020, dated 2026)", "key": {"SARS-CoV-2 [1]": {"test_system": "SARS-CoV-2", "settings": "cited from earlier work"}, "SARS-CoV-2 [2]": {"test_system": "SARS-CoV-2", "test": "microbe, parasite or virus in culture", "format": "cell-based", "settings": "Severe acute respiratory syndrome coronavirus 2, Vero C1008, 96 h"}, "SARS-CoV-2 [3]": {"test_system": "SARS-CoV-2", "test": "microbe, parasite or virus in culture", "format": "cell-based"}, "[4]": {"test_system": "Para-Influenza-3 virus, Reovirus, Sindbis virus, Cocsackie B4 virus, Punto Toro virus and Yellow Fever Virus", "settings": "cited from earlier work"}, "[5]": {"test_system": "replicating Mycobacterium tuberculosis", "settings": "cited from earlier work"}, "[6]": {"settings": "in vivo; cited from earlier work"}, "Babesia": {"test_system": "Babesia", "settings": "mice; cited from earlier work"}, "in vitro": {"test": "in vitro", "settings": "African green monkey"}}, "note": "pEC50: −log10 of the molar value.", "data": [{"smiles": "CCN(CCO)CCCC(C)Nc1ccnc2cc(Cl)ccc12", "note": "(stereo not shown) [Hydroxychloroquine]", "values": [{"measurement": "fold less potent in CALU-3 than in VERO cells", "setting": "SARS-CoV-2 [1]", "result": 10, "unit": "fold"}, {"measurement": "inhibition at 33 µM", "setting": "SARS-CoV-2 [2]; 33 microM, 4-day assay, read-out: inhibition at the highest non-toxic concentration", "result": 43, "unit": "%"}, {"measurement": "pEC50", "setting": "SARS-CoV-2 [3]; Severe acute respiratory syndrome coronavirus 2, Vero C1008, Vero E6, moi 0.05, 48 hours, TCID50", "result": 4.98}, {"measurement": "selectivity index", "setting": "SARS-CoV-2 [3]; calculated relative to the CC50 for the 4-day test", "result": 5.3}]}, {"smiles": "COc1cc(NC(C)CCCN)c2ncccc2c1", "note": "(stereo not shown) [Primaquine]", "values": [{"measurement": "pEC50", "setting": "[4]", "result": "< 4.30"}, {"measurement": "MIC", "setting": "[5]", "result": 256, "unit": "microgram/ml"}, {"measurement": "half-life", "setting": "[6]", "result": "approximately 6 hours"}, {"measurement": "dose clearing Babesia parasitemia", "setting": "Babesia", "result": 100, "unit": "mg/kg"}]}, {"smiles": "CCC(CC)COC(=O)[C@H](C)N[P@](=O)(OC[C@H]1O[C@@](C#N)(c2ccc3c(N)ncnn23)[C@H](O)[C@@H]1O)Oc1ccccc1", "note": "[Remdesivir]", "values": [{"measurement": "CC50", "setting": "in vitro", "result": "> 100", "unit": "µM"}, {"measurement": "pEC50", "setting": "SARS-CoV-2 [2]", "result": 6.15}]}]}
